{"source": "patent US5900434A", "about": "“Method for inhibiting the production of interleukin-1 or tumor necrosis factor-α by administering acanthoic acid” (Korea Institute of Science and Technology, priority 1994, dated 1999)", "key": {"[1]": {"test_system": "O2^- production in human monocytes and macrophages", "assay": "Production of O2^- in silica-stimulated human monocytes and macrophages", "format": "cell-based", "settings": "10 μg/ml, 1 hour, 100 μg/ml silica, FIG. 5", "experimental": "Normal human peripheral blood was heparin-treated and diluted with equal amount of Hank's balanced salt solution (HBSS: Ca^2+ and Mg^2+ free). The diluted blood was put into a centrifuge tube containing therein Ficoll-Hypaque(Sigma, St. Louis, Mo., U.S.A.) layer having a density of 1.077 piled up on Ficoll-Hypaque layer having a density of 1.119, and then centrifuged at 700×g for 30 minutes to obtain monocytes from the layer between Ficoll-Hypaque layer having a density of 1.077 and serum layer, and neutrophils from the layer between Ficoll-Hypaque layer having a density of 1.077 and that having a density of 1.119. The separated cells were washed twice with 4° C. HBSS(Ca^2+ and Mg^2+ free) and suspended in RPMI 1640 medium(Gibco, Grand Island, N.Y., U.S.A.) containing 10% fetal bovine serum(FBS, Hyclone, Logan, Utah, U.S.A.). The suspensions were added to the wells of 24-well incubation plate(Costar, Cambridge, Mass., U.S.A.) and incubated at 37° C. for 2 hours to obtain monocytes, macrophages and neutrophils. […] The change of color of the supernatant caused by the reduction of cytochrome C was measured at 550 nm by using a UV-Visible spectrophotometer (Kontron Instrument, Milano, Italy). […]"}, "[2]": {"test_system": "serum glutamic-pyruvic transaminase (sGPT)", "assay": "CCl4-induced hepatocirrhosis in rat, serum GPT", "format": "in vivo, Sprague-Dawley rat", "settings": "CCl4-treated rat; 0.2 ml orally twice a week, 13 weeks; FIG. 10", "text": "Hepatocirrhosis(hepatic sclerosis) is characterized by the fibrosis of whole liver, complete disruption of liver parenchyma by fibrous septa, and formation of regenerative nodules. It is derived mostly from a chronic hepatitis or chronic alcoholism, however, the precise causes thereof are unknown. In a hepatocirrhosis patient, the amount of cytokines, e.g., TNF-α, which is involved in inflammation and fibrosis, is in an increased state; and, therefore, the inhibition of hepatocirrhosis by acanthoic acid may be determined by the inhibitory activity to TNF-α. To induce the experimental hepatocirrhosis in accordance with the method of Nakataukasa, H., et al. as described in J. Clin. Invest., 85, 1833-1843(1990), 1.0 ml/100 g of body weight of CCl4 solution(50% CCl4 +50% corn oil) was injected intraperitoneally to 4 week old male Sprague-Dawley rats twice a week, and 0.2 ml each of methanol extract of A. koreanum Nakai and acanthoic acid was administered orally at the time of the injection of CCl4 twice a week. After 13 weeks from the start of the test, each of the rats was anesthetized with ether and the blood samples were obtained from the heart to determine serum glutamic-oxaloacetic transaminase(sGOT) value and serum glutamic-pyruvic transaminase(sGPT) value(FIG. 10)."}, "[3]": {"test_system": "H2O2 production in human monocytes and macrophages", "assay": "Production of H2O2 in silica-stimulated human monocytes and macrophages", "format": "cell-based", "settings": "10 μg/ml, 1 hour, 100 μg/ml silica, FIG. 5", "experimental": "Normal human peripheral blood was heparin-treated and diluted with equal amount of Hank's balanced salt solution (HBSS: Ca^2+ and Mg^2+ free). The diluted blood was put into a centrifuge tube containing therein Ficoll-Hypaque(Sigma, St. Louis, Mo., U.S.A.) layer having a density of 1.077 piled up on Ficoll-Hypaque layer having a density of 1.119, and then centrifuged at 700×g for 30 minutes to obtain monocytes from the layer between Ficoll-Hypaque layer having a density of 1.077 and serum layer, and neutrophils from the layer between Ficoll-Hypaque layer having a density of 1.077 and that having a density of 1.119. The separated cells were washed twice with 4° C. HBSS(Ca^2+ and Mg^2+ free) and suspended in RPMI 1640 medium(Gibco, Grand Island, N.Y., U.S.A.) containing 10% fetal bovine serum(FBS, Hyclone, Logan, Utah, U.S.A.). […] The amount of H2 O2 was determined by a microassay employing 96-well microplate as follows. […] When the incubation was completed, 3M NaOH was added to the wells in an amount of 25 μl/well to stop the reaction and O.D. was measured at 620 nm by using ELISA reader(Dynatech Lab. Inc.) to determine the change of colors with respect to the oxidation of phenol. The amount of H2 O2 was determined by employing a standard curve prepared by diluted H2 O2 (Sigma). […]"}}}
{"smiles": "C=C[C@@]1(C)CC=C2C(CCC3[C@](C)(C(=O)O)CCC[C@@]23C)C1", "note": "(single isomer, unassigned; (-)) [acanthoic acid, (-)-pimara-9(11),15-diene-19-oic acid]", "values": [{"measurement": "amount of O2^-", "setting": "[1]", "value": "decrease significantly"}, {"measurement": "decrease of sGPT value", "setting": "[2]", "value": "more than 40%"}, {"measurement": "amount of H2O2", "setting": "[3]", "value": "decrease significantly"}]}
